The values below come from article PMC8078777 (PLoS Pathogens, 2021).

In data set [1] the target is T1, NLPPya (Pythium aphanidermatum, UniProt Q9SPD4). Description: Surface plasmon resonance binding to immobilized NLPPya. As to conditions: for SPR binding to NLPPya (in words): sensor-chip-immobilized NLPPya; for Kd: SPR, steady-state affinity model, 50 mM MES, 150 mM NaCl, 5% DMSO, pH 5.8. Here is the method:
Biacore T100 equipped with the Series S Sensor chip CM5 (GE Healthcare) was used to assess the binding of compounds to NLPPya and NLPPp. The proteins were covalently immobilized to the chip using amine coupling. The surface was activated with a 10 min injection of a mixture of 1-ethyl-3-(3-dimethylaminopropyl) carbodiimide hydrochloride / N-hydroxysuccinimide (1:1). NLPs were immobilized on the second flow cell. The first flow cell was left empty to control any nonspecific compound binding to the dextran matrix. […] In total, 587 in-house compounds (Faculty of Pharmacy, University of Ljubljana) were dissolved in DMSO as stock solutions at a concentration of 10 mM and diluted in 50 mM 2-(N-morpholino)ethanesulfonic acid (MES) and 150 mM NaCl to a final concentration of 5% DMSO (pH 5.8) prior to SPR experiments. After washing the sensor surface with running buffer (50 mM MES, 150 mM NaCl, 5% DMSO, pH 5.8), the compounds were tested at two different concentrations: 20 and 200 μM. Certain compounds were tested at lower concentrations owing to their lower solubility in the running buffer. Each compound was injected for 1 min at a flow rate of 30 μL/min, and dissociation was monitored for another minute. […] In the next set of experiments, 67 selected compounds were titrated. The samples were injected for 1 min at a flow rate of 30 μL/min, and dissociation was monitored for another minute. The samples were typically injected at the following concentrations: 0, 12.5, 25, 50, 100, and 200 μM. At the end of each concentration series, 25 μM of compound was injected again to control the activity of the surface. Regeneration between individual injections was not needed for molecules that completely dissociated from the protein. When complete dissociation was not achieved, short pulses of 0.1% SDS were included. The obtained sensorgrams were analyzed using the Biacore T100 Evaluation software, and the steady-state affinity binding model was used to calculate affinity constants.

The next data set deals with tobacco leaves. In words: Tobacco leaf infiltration assay, compounds alone. In kind it is in vivo, Nicotiana tabacum. Conditions: 1 mM compound in 5% DMSO, 24 h. Here is the method:
(§1) Tobacco plants (Nicotiana tabacum ‘White Burley’) were grown in a controlled growth chamber with supplementary light (70−90 μMm^-2s^-1) and a 16 h photoperiod with 22°C day and 20°C night temperatures at 75±2% humidity. Using blunt-ended syringe pressure infiltration, 100 μL of solution (either 400 nM NLPPp or 250 nM NLPPya in ultrapure water in the absence or presence of the compounds) was infiltrated abaxially into the leaves of 5−7-week-old tobacco plants (Nicotiana tabacum ‘White Burley’). 5% DMSO, NLP solutions, and appropriate compound dilutions were used as controls. The area on the upper side of the leaf, which was infiltrated with solutions, was labeled and checked for the presence of necrosis after 24 h. To thoroughly assess the effect of compound 6G7 on the level of leaf necrosis/chlorosis, 50 μL of 100 nM NLPPya solution without/with 500 μM or 1 mM 6G7 in 20 mM MES, 150 mM NaCl, pH 5.8, containing 10% DMSO was infiltrated. The level of leaf chlorosis was estimated using ImageJ software by calculating the ratio of the chlorotic area to the whole infiltrated area, both measured in squared pixels. Each value represents the average of sixteen infiltrations.

Data set [2] deals with T1, NLPPya. Description: STD-NMR binding to NLPPya. As to conditions: 25°C. The procedure: STD-NMR experiments were performed with 8 μM NLPPya. A pseudo-2D version of a STD-NMR pulse sequence with DPFGSE water suppression for the interleave acquisition of on- (δ 0.2 ppm) and off-resonance (δ 40 ppm) spectra was used at 25°C with 512 scans. A 30 ms spin-lock filter was used for protein signal suppression. The STD spectra were obtained by subtracting the saturated spectra from the reference spectra. The STD effect was calculated by (I0-Isat)/I0, where I0 is the signal intensity in the off-resonance spectrum, Isat is the signal intensity in the on-resonance spectrum, and I0-Isat is the intensity of the STD-NMR spectrum. Appropriate control experiments in the absence of protein were performed to assure the absence of direct irradiation of the ligand. In the titration study, five STD experiments were performed with varying ligand concentrations (40, 80, 240, 400, and 560 μM).
The STD amplification factor (STD-AF) was determined according to Eq 1, where [L] is the ligand concentration, and [P] is the NLPPya concentration.
The hyperbolic behavior of the curves obtained from plotting STD-AF as a function of ligand concentration is appropriately described by Eq 2, where STD-AF is the STD amplification factor, αSTD is the maximum amplification factor, [L] is the ligand concentration, and KD is the dissociation constant. […]

For the next data set, the system named is Phytophthora infestans. In kind it is in vivo. Conditions: for P. infestans infection spots on potato leaves (size and coloring): 1 mM compound applied with zoospores, 4 days; for P. infestans growth on potato leaves by real-time PCR: 1 mM compound, 4 days after infection, vs control compound 6E11.
Another data set concerns Caco-2 cells. Description: Caco-2 cell toxicity, MTT assay. In kind it is cell-based, human. As to conditions: overnight. Here is the method: (§2) Caco-2 cells were seeded onto microtiter 96-well plates at a density of 70,000 cells/mL in 50 µL of minimal essential medium (Sigma) supplemented with 10% fetal bovine serum (Sigma), 1% L-glutamine (Gibco), and 1% non-essential amino acids (Sigma). Cells were incubated for two days at 37 °C in a humidified atmosphere containing 5% CO2. Then the cells were treated with the selected compounds at different concentrations: 6G7 and 6C3 were added at concentrations of 0.0625, 0.125, 0.25, 0.5, 1, and 2 mM, and 7C8 at concentrations of 3.125, 6.25, 12.5, 25, 50, and 100 μM. The final DMSO concentration in the medium was adjusted as indicated by the solubility of individual compounds and was reduced proportionally with serial dilutions. The highest DMSO concentration in assays was 5%. After overnight incubation, the cell viability was assessed by the MTT assay. Briefly, 3-(4,5-dimethylthiazol-2-yl)-2,5-diphenyltetrazolium bromide (MTT) reagent was added to each well at a final concentration of 1 mg/mL and incubated for 3 h. The medium was then removed, and the formazan product of living cells was dissolved in DMSO. The absorbance was measured at 570 nm with a Fluostar Galaxy microplate reader. Three independent experiments with the compounds 6C3 and 7C8 and four independent experiments with the compound 6G7 were performed.

For data set [3], the target named is T1, NLPPya. In words: Tobacco leaf infiltration assay, NLPPya-induced necrosis/chlorosis. Format: in vivo. Conditions: 24 h; for effect on NLPPya-induced necrosis: 200 nM NLPPya, tobacco leaves. Here is the method: as §1, with “([…]” for “(either 400 nM NLPPp or 250 nM NLPPya in ultrapure water in the absence or presence”, “To thoroughly assess the effect of compound 6G7 on the level of leaf necrosis/chlorosis, 50 μL of 100 nM NLPPya solution without/with 500 μM or 1 mM 6G7 in 20 mM MES, 150 mM NaCl, pH 5.8, containing 10% DMSO was infiltrated.” left out

Data set [4] has as its target T1, NLPPya. In words: Ion leakage from tobacco leaf disks induced by NLPPya. As to conditions: 100 nM NLPPya, conductivity after 2 h. Format: in vivo. Here is the method:
Tobacco leaves were infiltrated with 100 nM NLPPya in 20 mM MES, 150 mM NaCl pH 5.8, preincubated for 10 min with 500 μM or 1 mM 6G7. Final concentration of DMSO in solution was 10%. After 10 min incubation, 2 leaf disks were punched out (Ø 6 mm) and transferred to 2 mL of deionized distilled water. After 30 min of shaking at 430 rpm, leaf disks were transferred to 1 mL of fresh deionized distilled water. Conductivity was measured after 2 h using SevenCompact Cond meter (Mettler Toledo). Mock treated samples were discs from leaves infiltrated with buffer containing 10% DMSO or 6G7. Each value represents the average of 12–18 independent experiments.

The nature of data set [5]: Caco-2 cell toxicity, MTT assay. In kind it is cell-based, human. Conditions: human, Caco-2, 12.5 μM, overnight, read-out: Caco-2 cell viability, of the untreated control. The procedure:
as §2

A short description of data set [6]: Solubility in SPR running buffer. In kind it is physicochemical. Conditions: SPR running buffer containing 5% DMSO.

Values after ≈ are worked out from the molar mass of the structure shown. Values joined by “and” are separate entries in the source; they are usually repeats but may differ in a detail not shown here. Equal values may be shown once. “Also recorded” adds a separate entry of the source.

T1 sequence (Q9SPD4 18-234 limits assumed): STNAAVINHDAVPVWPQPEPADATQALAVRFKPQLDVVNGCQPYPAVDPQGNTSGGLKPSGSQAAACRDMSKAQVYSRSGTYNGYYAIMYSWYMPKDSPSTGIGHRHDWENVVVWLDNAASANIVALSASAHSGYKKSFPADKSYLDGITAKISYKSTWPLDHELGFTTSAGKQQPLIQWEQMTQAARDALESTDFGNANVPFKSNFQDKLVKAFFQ

In the case of `Cc1oc([C@@H](O)[C@H](O)[C@H](O)CO)cc1C(=O)O` [6E11, 2-methyl-5-((1S,2R,3R)-1,2,3,4-tetrahydroxybutyl)furan-3-carboxylic acid, reference compound], the “SPR binding to NLPPya (in words)” value at NLPPya [1] was “did not bind”. Further, the “toxic effects of compound alone on leaf tissue” value (“toxic effects of compound alone” below) with tobacco leaves is listed as “did not affect the plant tissue”.

As to `COc1ccc(Nc2ccccc2C(=O)O)cc1` [6G7, 2-((4-methoxyphenyl)amino)benzoic acid], the “STD signals in the presence of NLPPya” value at NLPPya [2] (400 μM ligand, 1:50 receptor-to-ligand ratio) is “clear STD signals”. For the same molecule, the Kd on NLPPya [2] (STD-NMR titration, 8 μM NLPPya) is 150 ± 7 µM; at NLPPya [1], 131 ± 36.4 µM. Also, the “P. infestans infection spots on potato leaves (size and coloring)” value (“P. infestans infection spots” for short) in the data set on Phytophthora infestans is reported as “largely reduced or disappeared”. For the same molecule, the “P. infestans growth on potato leaves by real-time PCR” value (shortened to “P. infestans growth on potato leaves”) in the data set with Phytophthora infestans is “significantly reduced; also recorded: significantly inhibited”. Also, the “toxic effects of compound alone” value with tobacco leaves is “did not affect the plant tissue”. Also, the “effect on Caco-2 cell viability” value in the data set with Caco-2 cells (up to concentrations approximately 10 times higher than its KD for NLPs) is given as “did not affect cell viability; also recorded: non-toxic”. Further, the NLPPya-induced leaf chlorosis result on NLPPya [3] (100 nM NLPPya, 1 mM compound, buffer with 10% DMSO) is reported as “efficiently reduced”. Also, at NLPPya [3] (1 mM compound), the “effect on NLPPya-induced necrosis” value is “inhibited”. In addition, the “ion leakage induced by NLPPya from tobacco cells” value on NLPPya [4] (500 μM compound) and on NLPPya [4] (1 mM compound) was “efficiently inhibit” each time.

For `Cc1ccc2occ(C3N[C@H](C(=O)O)CS3)c(=O)c2c1` (stereo partly drawn) [6C3, (4R)-2-(6-methyl-4-oxo-4H-chromen-3-yl)thiazolidine-4-carboxylic acid], the “SPR binding to NLPPya (in words)” value at NLPPya [1] is reported as “stable binding”. The “P. infestans infection spots” value in the data set on Phytophthora infestans is “largely reduced or disappeared”. Further, the “P. infestans growth on potato leaves” value with Phytophthora infestans is “significantly reduced”. Further, in the data set with tobacco leaves, the “toxic effects of compound alone” value was “did not affect the plant tissue”. The figures for the “reduction of Caco-2 cell viability” value in the data set with Caco-2 cells (1 mM) and with Caco-2 cells (2 mM) were 8% and 15%, respectively. Further, the “effect on Caco-2 cell viability” value in the data set on Caco-2 cells (concentrations below 500 μM) is listed as “did not affect cell viability”. At NLPPya [3] (1 mM compound), the “effect on NLPPya-induced necrosis” value is “inhibited”.

For the molecule `O=C(Cc1c[nH]c2ccccc12)Nc1ccccc1CCOC(=O)Cc1c[nH]c2ccccc12` [7C8, 2-(2-(1H-indol-3-yl)acetamido)phenethyl 2-(1H-indol-3-yl)acetate], at NLPPya [1], the Kd was 52.8 µM and ~50 µM. For the same molecule, in the data set with Phytophthora infestans, the “P. infestans infection spots” value is listed as “largely reduced or disappeared”; the “P. infestans growth on potato leaves” value is “significantly reduced”. Besides, the “toxic effects of compound alone” value with tobacco leaves is given as “did not affect the plant tissue”. Also, the viability at 12.5 µM in data set [5] came out at 20%. For the same molecule, in the data set on Caco-2 cells (3.125 μM), the “reduction of Caco-2 cell viability” value was determined as 35%. In addition, in [6], the solubility limit entry is recorded as “poorly soluble at concentrations of >180”. Also, the solubility in data set [6] (pH 5.8, aqueous with cosolvent or surfactant or cyclodextrin, kinetic from dmso stock, read-out: solubility limit) is roughly 180 µM (≈ 81.3 µg/mL). Further, the “effect on NLPPya-induced necrosis” value at NLPPya [3] (200 μM compound) is given as “inhibited”.
